Assay results published in ChEMBL document CHEMBL1287741, “Synthesis, antiproliferative activity in cancer cells and theoretical studies of novel 6α,7β-dihydroxyvouacapan-17β-oic acid Mannich base derivatives” (2010).
Converted amounts (≈) assume the structure as drawn.

Key:
Format in all cases: functional
[1] = system: HT-29; experiment: Growth inhibition of human HT-29 cells after 48 hrs by sulforhodamine B assay; details: HT-29, 48 h
[2] = system: UACC-62; experiment: Growth inhibition of human UACC62 cells after 48 hrs by sulforhodamine B assay; details: UACC-62, 48 h
[3] = system: PC-3; experiment: Growth inhibition of human PC3 cells after 48 hrs by sulforhodamine B assay; details: PC-3, 48 h
[4] = system: 786-0; experiment: Growth inhibition of human 786-0 cells after 48 hrs by sulforhodamine B assay; details: 786-0, 48 h
[5] = system: OVCAR-3; experiment: Growth inhibition of human OVCAR-3 cells after 48 hrs by sulforhodamine B assay; details: OVCAR-3, 48 h
[6] = system: NCI/ADR-RES; experiment: Growth inhibition of human NCI-ADR-RES cells after 48 hrs by sulforhodamine B assay
[7] = system: NCI-H460; experiment: Growth inhibition of human NCI-H460 cells after 48 hrs by sulforhodamine B assay; details: NCI-H460, 48 h
[8] = system: MCF7; experiment: Growth inhibition of human MCF7 cells after 48 hrs by sulforhodamine B assay; details: MCF7, 48 h
[9] = system: K562; experiment: Growth inhibition of human K562 cells after 48 hrs by sulforhodamine B assay; details: K562, 48 h

| SMILES | GI50 [1] [µg/mL] | GI50 [3] [µg/mL] | GI50 [4] [µg/mL] | GI50 [5] [µg/mL] | GI50 [7] [µg/mL] | GI50 [8] [µg/mL] | GI50 [9] [µg/mL] | TGI [1] [µg/mL] | GI50 [2] [µg/mL] | TGI [2] [µg/mL] | TGI [3] [µg/mL] | TGI [4] [µg/mL] | TGI [5] [µg/mL] | GI50 [6] [µg/mL] | TGI [6] [µg/mL] | TGI [7] [µg/mL] | TGI [8] [µg/mL] | TGI [9] [µg/mL] |
| --- | --- | --- | --- | --- | --- | --- | --- | --- | --- | --- | --- | --- | --- | --- | --- | --- | --- | --- |
| CC(C)CN(Cc1cc2c(o1)C[C@H]1[C@H]3[C@@H](OC(=O)[C@H]23)[C@H](O)[C@H]2C(C)(C)CCC[C@]12C)CC(C)C | 0.67 (≈ 1.42 µM) | 0.98 (≈ 2.08 µM) | 2.5 (≈ 5.3 µM) | 0.28 (≈ 0.594 µM) | 0.29 (≈ 0.615 µM) | 0.69 (≈ 1.46 µM) | 5.06 (≈ 10.7 µM) | 6.91 (≈ 14.6 µM) | 0.86 (≈ 1.82 µM) | 5.27 (≈ 11.2 µM) | 4.06 (≈ 8.61 µM) | 16.6 (≈ 35.3 µM) | 1.86 (≈ 3.94 µM) | 0.39 (≈ 0.827 µM) | 5.39 (≈ 11.4 µM) | 3.2 (≈ 6.78 µM) | 7.4 (≈ 15.7 µM) | 86.1 (≈ 182 µM) |
| CC1(C)CCC[C@@]2(C)C1[C@@H](O)[C@@H]1OC(=O)[C@@H]3c4ccoc4C[C@H]2[C@@H]13 (some centres undefined) | 52.5 (≈ 159 µM) | 30.8 (≈ 93.3 µM) | 8.87 (≈ 26.8 µM) | 0.52 (≈ 1.57 µM) | 2.53 (≈ 7.66 µM) | 27.7 (≈ 83.7 µM) | 2.08 (≈ 6.29 µM) | > 250 | 5.19 (≈ 15.7 µM) | 30 (≈ 90.8 µM) | 91.9 (≈ 278 µM) | 37.3 (≈ 113 µM) | 8.82 (≈ 26.7 µM) | 0.35 (≈ 1.06 µM) | > 250 | 12.4 (≈ 37.7 µM) | 214 (≈ 647 µM) | > 250 |
| COc1cccc2c1C(=O)c1c(O)c3c(c(O)c1C2=O)C[C@@](O)(C(=O)CO)C[C@@H]3O[C@H]1C[C@H](N)[C@H](O)[C@H](C)O1 [DOXORUBICIN] | 0.07 (≈ 0.129 µM) | 0.28 (≈ 0.515 µM) | 0.04 (≈ 0.0736 µM) | 0.08 (≈ 0.147 µM) | < 0.03 | 0.03 (≈ 0.0552 µM) | 0.4 (≈ 0.736 µM) | 3.9 (≈ 7.18 µM) | 0.09 (≈ 0.166 µM) | 0.33 (≈ 0.607 µM) | 5.85 (≈ 10.8 µM) | 2.67 (≈ 4.91 µM) | 2.95 (≈ 5.43 µM) | 0.33 (≈ 0.607 µM) | 6.6 (≈ 12.1 µM) | 0.9 (≈ 1.66 µM) | 3.3 (≈ 6.07 µM) | 20.5 (≈ 37.7 µM) |

Continued, in another order:

| GI50 [1] [µg/mL] | GI50 [3] [µg/mL] | GI50 [4] [µg/mL] | GI50 [5] [µg/mL] | GI50 [7] [µg/mL] | GI50 [8] [µg/mL] | GI50 [9] [µg/mL] | SMILES | TGI [1] [µg/mL] | GI50 [2] [µg/mL] | TGI [2] [µg/mL] | TGI [3] [µg/mL] | TGI [4] [µg/mL] | TGI [5] [µg/mL] | GI50 [6] [µg/mL] | TGI [6] [µg/mL] | TGI [7] [µg/mL] | TGI [8] [µg/mL] | TGI [9] [µg/mL] |
| --- | --- | --- | --- | --- | --- | --- | --- | --- | --- | --- | --- | --- | --- | --- | --- | --- | --- | --- |
| 0.32 (≈ 0.77 µM) | 0.28 (≈ 0.674 µM) | 2.23 (≈ 5.37 µM) | 2.5 (≈ 6.02 µM) | 1.35 (≈ 3.25 µM) | 0.27 (≈ 0.65 µM) | < 0.25 | CCN(CC)Cc1cc2c(o1)C[C@H]1[C@H]3[C@@H](OC(=O)[C@H]23)[C@H](O)[C@H]2C(C)(C)CCC[C@]12C | 1.14 (≈ 2.74 µM) | 0.57 (≈ 1.37 µM) | 2.55 (≈ 6.14 µM) | 0.58 (≈ 1.4 µM) | 2.49 (≈ 5.99 µM) | 5.62 (≈ 13.5 µM) | 3.12 (≈ 7.51 µM) | 8.15 (≈ 19.6 µM) | 3.23 (≈ 7.77 µM) | 1.44 (≈ 3.47 µM) | 3.01 (≈ 7.24 µM) |
| 2.33 (≈ 5.25 µM) | 2.4 (≈ 5.41 µM) | 2.5 (≈ 5.64 µM) | 2.36 (≈ 5.32 µM) | 2.96 (≈ 6.67 µM) | 2.5 (≈ 5.64 µM) | 2.77 (≈ 6.24 µM) | CCCN(CCC)Cc1cc2c(o1)C[C@H]1[C@H]3[C@@H](OC(=O)[C@H]23)[C@H](O)[C@H]2C(C)(C)CCC[C@]12C | 3.35 (≈ 7.55 µM) | 2.76 (≈ 6.22 µM) | 4.96 (≈ 11.2 µM) | 3.83 (≈ 8.63 µM) | 3.72 (≈ 8.39 µM) | 3.9 (≈ 8.79 µM) | 2.64 (≈ 5.95 µM) | 5.53 (≈ 12.5 µM) | 6.01 (≈ 13.5 µM) | 5.31 (≈ 12 µM) | 8.87 (≈ 20 µM) |
| 0.3 (≈ 0.725 µM) | 0.34 (≈ 0.822 µM) | 0.76 (≈ 1.84 µM) | 2.5 (≈ 6.05 µM) | 2.5 (≈ 6.05 µM) | 1.81 (≈ 4.38 µM) | 1.58 (≈ 3.82 µM) | CC1(C)CCC[C@]2(C)[C@H]3Cc4oc(CN5CCCC5)cc4[C@H]4C(=O)O[C@@H]([C@H](O)[C@@H]12)[C@@H]43 | 1.61 (≈ 3.89 µM) | 0.78 (≈ 1.89 µM) | 3.05 (≈ 7.38 µM) | 1.69 (≈ 4.09 µM) | 3.98 (≈ 9.62 µM) | 5.28 (≈ 12.8 µM) | 2.5 (≈ 6.05 µM) | 6.18 (≈ 14.9 µM) | 4.94 (≈ 11.9 µM) | 3.86 (≈ 9.33 µM) | 23.2 (≈ 56.1 µM) |
| 1.76 (≈ 4.12 µM) | 0.27 (≈ 0.631 µM) | 2.31 (≈ 5.4 µM) | 2.37 (≈ 5.54 µM) | 2.5 (≈ 5.85 µM) | 0.88 (≈ 2.06 µM) | 0.32 (≈ 0.748 µM) | CC1(C)CCC[C@]2(C)[C@H]3Cc4oc(CN5CCCCC5)cc4[C@H]4C(=O)O[C@@H]([C@H](O)[C@@H]12)[C@@H]43 | 2.23 (≈ 5.22 µM) | 2.44 (≈ 5.71 µM) | 3.96 (≈ 9.26 µM) | 0.78 (≈ 1.82 µM) | 4.11 (≈ 9.61 µM) | 4.36 (≈ 10.2 µM) | 2.65 (≈ 6.2 µM) | 7.1 (≈ 16.6 µM) | 4.64 (≈ 10.9 µM) | 3.82 (≈ 8.93 µM) | 4.55 (≈ 10.6 µM) |
| 1.68 (≈ 3.91 µM) | 0.27 (≈ 0.629 µM) | 2.37 (≈ 5.52 µM) | 2.6 (≈ 6.05 µM) | 2.69 (≈ 6.26 µM) | 2.45 (≈ 5.7 µM) | 2.39 (≈ 5.56 µM) | CC1(C)CCC[C@]2(C)[C@H]3Cc4oc(CN5CCOCC5)cc4[C@H]4C(=O)O[C@@H]([C@H](O)[C@@H]12)[C@@H]43 | 3.68 (≈ 8.57 µM) | 2.5 (≈ 5.82 µM) | 4.36 (≈ 10.1 µM) | 1.27 (≈ 2.96 µM) | 4.04 (≈ 9.41 µM) | 8.05 (≈ 18.7 µM) | 2.73 (≈ 6.36 µM) | 6.34 (≈ 14.8 µM) | 4.05 (≈ 9.43 µM) | 4.77 (≈ 11.1 µM) | 8.24 (≈ 19.2 µM) |
